Patent publication US20220056019A1, “FARNESOID X RECEPTOR AGONISTS AND USES THEREOF” (Metacrine, Inc., priority 2018, published 2022)

Biological target: T1, hFXR (Homo sapiens, UniProt Q96RI1)
T1 construct: expressed in transfected cells; host or cells: CV-1 cells
T1 sequence (Q96RI1 1-486): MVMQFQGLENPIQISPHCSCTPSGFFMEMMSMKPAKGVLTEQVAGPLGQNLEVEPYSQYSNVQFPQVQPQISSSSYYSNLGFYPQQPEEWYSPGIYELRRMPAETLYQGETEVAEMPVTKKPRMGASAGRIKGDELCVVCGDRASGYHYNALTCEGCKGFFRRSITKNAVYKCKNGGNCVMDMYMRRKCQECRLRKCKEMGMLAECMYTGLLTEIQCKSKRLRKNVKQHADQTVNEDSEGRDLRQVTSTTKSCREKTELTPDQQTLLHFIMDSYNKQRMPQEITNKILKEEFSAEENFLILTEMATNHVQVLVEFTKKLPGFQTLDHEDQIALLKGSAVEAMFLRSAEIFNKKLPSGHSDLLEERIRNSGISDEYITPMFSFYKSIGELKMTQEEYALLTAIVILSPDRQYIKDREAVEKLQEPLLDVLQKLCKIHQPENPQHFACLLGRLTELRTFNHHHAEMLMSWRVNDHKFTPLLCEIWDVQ
T1 sequence (P19793 1-462 partner): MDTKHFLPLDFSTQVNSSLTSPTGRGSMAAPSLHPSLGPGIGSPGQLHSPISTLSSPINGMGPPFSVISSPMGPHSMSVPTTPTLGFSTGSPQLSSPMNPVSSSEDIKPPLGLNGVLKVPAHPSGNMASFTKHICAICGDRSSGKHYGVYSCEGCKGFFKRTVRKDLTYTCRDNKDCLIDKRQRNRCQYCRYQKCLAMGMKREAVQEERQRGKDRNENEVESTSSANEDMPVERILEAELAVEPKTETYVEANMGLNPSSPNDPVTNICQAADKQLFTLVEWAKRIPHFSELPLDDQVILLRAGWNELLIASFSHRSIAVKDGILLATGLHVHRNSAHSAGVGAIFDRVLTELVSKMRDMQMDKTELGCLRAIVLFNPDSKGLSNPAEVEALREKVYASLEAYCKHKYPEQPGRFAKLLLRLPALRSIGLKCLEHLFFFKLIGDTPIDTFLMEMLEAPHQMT
Assay: In Vitro FXR Assay (TK): TK-ECRE-luc reporter in transfected CV-1 cells
Assay type: cell-based
Details: 18 hrs incubation, luminescence
How it was run: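 CV-1 cells transiently cotransfected with hFXR, hRXR, TK-ECRE-luc reporter and pCMX-YFP plasmids in charcoal-stripped serum medium. Serially diluted compounds added for 18 h at 37° C., then cells lysed and luciferase luminescence measured.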

Row | EC50 [nM] | SMILES
1 | 50 to 1000 | COc1ccc([C@H]2CC[C@H](CN(c3cc(-c4coc(C(C)C)n4)ccn3)C(=O)[C@H]3CC[C@H](OC(=O)NCC(C)(C)CO)CC3)CC2)nc1C [Compound 1.01, trans-4-((4-(2-Isopropyloxazol-4-yl)pyridin-2-yl)((trans-4-(5-methoxy-6-methylpyridin-2-yl)cyclohexyl)methyl)carbamoyl) cyclohexyl (3-hydroxy-2,2-dimethylpropyl)carbamate]
2 | ≤ 50 | COc1ccc(C23CCC(CN(c4cc(-c5nc(C(C)C)no5)ccn4)C(=O)[C@H]4CC[C@H](OC(=O)N5CC(O)C5)CC4)(CC2)CC3)cc1C [Compound 26.13, 4-((4-(3-isopropyl-1,2,4-oxadiazol-5-yl)pyridin-2-yl)((4-(4-methoxy-3-methylphenyl)bicyclo[2.2.2]octan-1-yl)methyl)carbamoyl)cyclohexyl trans-3-hydroxyazetidine-1-carboxylate]
3 | 50 to 1000 | COc1ccc([C@H]2CC[C@H](CN(c3cccc(-c4cnn(C(C)C)c4)c3)C(=O)[C@H]3CC[C@H](NC(=O)C4CC(O)C4)CC3)CC2)cc1C (stereo partly drawn) [Compound 14.02, (1r,4r)-4-(3-Hydroxycyclobutanecarboxamido)-N-(3-(1-isopropyl-1H-pyrazol-4-yl)phenyl)-N-((trans-4-(4-methoxy-3-methylphenyl)cyclohexyl)methyl) cyclohexanecarboxamide]
4 | ≤ 50 | COc1ccc(C23CCC(CN(c4cc(-c5cnn(C6(C)CCC6)c5)c(F)cn4)C(=O)[C@H]4CC[C@H](OC(=O)N5CC(O)C5)CC4)(CC2)CC3)cc1C [Compound 25.18, 4-((5-Fluoro-4-(1-(1-methylcyclobutyl)-1H-pyrazol-4-yl)pyridin-2-yl)((4-(4-methoxy-3-methylphenyl)bicyclo[2.2.2]octan-1-yl)methyl)carbamoyl)cyclohexyl trans-3-hydroxyazetidine-1-carboxylate]
5 | ≤ 50 | Cc1ccc(C23CCC(CN(c4cc(-c5cnn(C(C)C)c5)ccn4)C(=O)[C@H]4CC[C@H](OC(=O)N5CC(O)C5)CC4)(CC2)CC3)cc1C [Compound 26.09, 4-(((4-(3,4-Dimethylphenyl)bicyclo[2.2.2]octan-1-yl)methyl)(4-(1-isopropyl-1H-pyrazol-4-yl)pyridin-2-yl)carbamoyl)cyclohexyl trans-3-hydroxyazetidine-1-carboxylate]
6 | ≤ 50 | COc1ccc(C23CCC(CN(c4cc(-c5cnn(C(C)C)c5)ccn4)C(=O)[C@H]4CC[C@H](OC(=O)N5CC(C)C5)CC4)(CC2)CC3)cc1C [Compound 4.53, 4-((4-(1-Isopropyl-1H-pyrazol-4-yl)pyridin-2-yl) ((4-(4-methoxy-3-methylphenyl)bicyclo [2.2.2]octan-1-yl)methyl)carbamoyl)cyclohexyl trans-3-methylazetidine-1-carboxylate]
7 | 50 to 1000 | COc1ncc([C@H]2CC[C@H](CN(c3cc(-c4cnn(C(C)C)c4)ccn3)C(=O)[C@H]3CC[C@H](OC(=O)N4CCN(C)CC4)CC3)CC2)cc1C [Compound 1.05, trans-4-((4-(1-Isopropyl-1H-pyrazol-4-yl)pyridin-2-yl)(((trans)-4-(6-methoxy-5-methylpyridin-3-yl)cyclohexyl)methyl)carbamoyl) cyclohexyl 4-methylpiperazine-1-carboxylate]
8 | ≤ 50 | COc1ccc(C23CCC(CN(c4cc(-c5cnn(C(C)C)c5)ccn4)C(=O)[C@H]4CC[C@H](OC(=O)NCCCO)CC4)(CC2)CC3)cc1C [Compound 4.07, 4-((4-(1-Isopropyl-1H-pyrazol-4-yl)pyridin-2-yl)((4-(4-methoxy-3-methylphenyl)bicyclo [2.2.2]octan-1-yl)methyl)carbamoyl)cyclohexyl (3-hydroxypropyl)trans-carbamate]
9 | 50 to 1000 | COc1ccc([C@H]2CC[C@H](CN(c3cc(-c4cnn(C(C)C)c4)ccn3)C(=O)[C@H]3CC[C@H](OC(=O)N4CCNCC4)CC3)CC2)cc1C [Compound 2.15, trans-4-((4-(1-Isopropyl-1H-pyrazol-4-yl)pyridin-2-yl) ((trans-4-(4-methoxy-3-methylphenyl)cyclohexyl)methyl)carbamoyl) cyclohexyl piperazine-1-carboxylate]
10 | ≤ 50 | COc1ccc(C23CCC(CN(c4ccc(F)c(-c5cnn(C(C)C)c5)c4)C(=O)[C@H]4CC[C@H](OC(=O)N5CC(CO)C5)CC4)(CC2)CC3)cc1C [Compound 25.09, 4-((4-Fluoro-3-(1-isopropyl-1H-pyrazol-4-yl)phenyl)((4-(4-methoxy-3-methylphenyl)bicyclo[2.2.2]octan-1-yl)methyl)carbamoyl)cyclohexyl trans-3-(hydroxymethyl)azetidine-1-carboxylate]
11 | ≤ 50 | COc1ccc([C@H]2CC[C@H](CN(c3cc(-c4cnn(C(C)C)c4)ccn3)C(=O)[C@H]3CC[C@H](OC(=O)NC[C@@H](F)CO)CC3)CC2)cc1C [Compound 2.41, trans-4-((4-(1-Isopropyl-1H-pyrazol-4-yl)pyridin-2-yl) (((trans)-4-(4-methoxy-3-methylphenyl)cyclohexyl)methyl)carbamoyl) cyclohexyl((R)-2-fluoro-3-hydroxypropyl)carbamate]
12 | ≤ 50 | COc1ccc(C23CCC(CN(c4cc(-c5cc(C(C)C)on5)ccn4)C(=O)[C@H]4CC[C@H](OC(=O)N5CC(O)C5)CC4)(CC2)CC3)cc1C [Compound 4.27, 4-((4-(5-Isopropylisoxazol-3-yl)pyridin-2-yl)((4-(4-methoxy-3-methylphenyl)bicyclo[2.2.2]octan-1-yl)methyl)carbamoyl) cyclohexyl 3-hydroxyazetidine-trans-1-carboxylate]
